This note sets out measurements from patent US20140088144A1, “INHIBITING MICROBIAL INFECTIONS” (THE UNIVERSITY OF KANSAS, priority 2012, published 2014).

The target of one assay is T1, GB1^b-RhaR (Escherichia coli, UniProt P09378).
T1 construct: GB1basic (N); made in house; host or cells: E. coli ArcticExpress(DE3), pET21-derived plasmid
Kind of assay: EMSA in vitro DNA binding by GB1^b-RhaR. Type of assay: biochemical, E. coli. The source says: All proteins for this study were expressed in E. coli. Untagged CRP was purified by Ni^2+-affinity chromatography as described. Lad protein was purified by ammonium sulfate precipitation and phosphocellulose column chromatography as described. RhaS-GB1^201b and GB1^b-RhaR were purified by Ni^2+-affinity chromatography. Briefly, plasmids derived from pET21 and expressing RhaS-GB1^201b and GB1^b-RhaR were transformed into competent cells of strains Acella™ (MoBiTec, Gottingen, Germany) or ArcticExpress(DE3) (Agilent Technologies, Santa Clara Calif.), respectively. The cells were grown in 1 liter TY plus ampicillin and rhamnose. Gentamycin was also added for GB1^b-RhaR. The cells were grown to OD600 of 0.5, transferred to a 15° C. shaker, 0.1 mM IPTG was added, and then incubated overnight. Cells were harvested by centrifugation and then resuspended in 30 mL of cold binding buffer (20 mM Tris, 500 mM NaCl, 5 mM imidazole, pH 7.9) plus L-rhamnose. Cells were lysed by three cycles of freeze thaw [with addition of lysozyme (0.4 mg/mL), tris(2-carboxyethyl)phosphine (TCEP, 1 mM) and phenylmethylsulfonyl fluoride (PMSF, 1 mM), at −80° C.] followed by sonication, and then centrifuged to remove cell debris. The supernatant was applied using an AKTAexplorer FPLC (GE Healthcare) to a 5 mL HiTrap Chelating HP column (GE Healthcare) that had been charged with 50 mM NiSO4, and equilibrated with 15 mL H2O and then 15 mL binding buffer. After loading, the column was washed with 25 mL binding buffer, then 25 mL wash buffer (binding buffer, but with 60 mM imidazole) plus L-rhamnose. A 10 mL gradient of binding buffer with 60 mM to 250 mM imidazole from was run and then 15 mL of elution buffer (binding buffer, but with 250 mM imidazole). […]
(§1) IRD700- and DY682-labeled oligos were from Eurofins MWG Operon. […] EMSA gels were imaged using an Odyssey infrared imager (LI-COR, Lincoln, Nebr.), and quantified using the Odyssey software, version 3.0.30. […] Inhibition values were calculated and graphs were drawn as for in vivo dose-response experiments.

The target of a further assay is T2, CRP (Escherichia coli, UniProt P0ACJ8).
T2 construct: made in house; host or cells: E. coli
Kind of assay: EMSA in vitro DNA binding by CRP. Type of assay: biochemical, E. coli. To be noted: 1.3 mM compound.
From the text: All proteins for this study were expressed in E. coli. Untagged CRP was purified by Ni^2+-affinity chromatography as described. Lad protein was purified by ammonium sulfate precipitation and phosphocellulose column chromatography as described. RhaS-GB1^201b and GB1^b-RhaR were purified by Ni^2+-affinity chromatography. Briefly, plasmids derived from pET21 and expressing RhaS-GB1^201b and GB1^b-RhaR were transformed into competent cells of strains Acella™ (MoBiTec, Gottingen, Germany) or ArcticExpress(DE3) (Agilent Technologies, Santa Clara Calif.), respectively. The cells were grown in 1 liter TY plus ampicillin and rhamnose. Gentamycin was also added for GB1^b-RhaR. The cells were grown to OD600 of 0.5, transferred to a 15° C. shaker, 0.1 mM IPTG was added, and then incubated overnight. Cells were harvested by centrifugation and then resuspended in 30 mL of cold binding buffer (20 mM Tris, 500 mM NaCl, 5 mM imidazole, pH 7.9) plus L-rhamnose. […]
as §1
On the technique in general: A gel shift assay detects complexes by their altered migration in electrophoresis.

A further assay concerns the target Rns (Escherichia coli, UniProt P16114). Kind of assay: % Inhibition at 82.5 μM, Rns. Type of assay: cell-based, Enterotoxigenic E. coli. To be noted: 82.5 μM.
The target of assay [1] is T3, VirF (Shigella flexneri, UniProt P0A2T1). Kind of assay: % Inhibition at 82.5 μM, VirF. Type of assay: cell-based. To be noted: 82.5 μM.
Assay [2] deals with T3, VirF. Kind of assay: In vivo dose-response, VirF-activated virB-lacZ fusion in E. coli. Type of assay: cell-based. On the set-up: expressed in transfected cells; host or cells: E. coli SME4382 (virB-lacZ, pHG165virF). The source says: For dose-response studies, a virB-lacZ reporter strain was constructed that allowed IPTG (isopropyl-β-D-thiogalactopyranoside) induced expression of VirF from plasmid pHG165. To construct this virB-lacZ reporter strain, kMAD102 was isolated from strain AB97, used to infect strain ECL116, and single copy lysogens were identified. Plvir-mediated generalized transductions were then used to add malP::lacI^q and recA::cat to this strain, as described previously. The virF gene was amplified (Forward oligo, Reverse oligo), digested with EcoRI and PstI and then ligated into the same sites of plasmid pHG165. The resulting plasmid, pHG165virF was transformed into SME4259 to make SME4382 (FIG. 20, Top). A control strain, SME3359, which carries a single copy hts-lacZ reporter fusion in the chromosome and a plasmid pHG165lacI that expresses LacI protein (FIG. 20, Bottom), was constructed. Briefly, the hts-lacZ reporter fusion consists of a synthetic promoter that is repressed by Lad.
In vivo dose-response assays were performed using a procedure described previously. […] Bacterial cultures were mixed with varying concentrations of SE-1 (2.2% DMSO, final), induced with 6.5 mM IPTG for 3 h at 37° C., lysed and β-galactosidase activity was measured. […] IC50 values were calculated and graphs were drawn using Prism (GraphPad, La Jolla, Calif.).

T3 sequence (P0A2T1 whole entry, the tested form may be a part): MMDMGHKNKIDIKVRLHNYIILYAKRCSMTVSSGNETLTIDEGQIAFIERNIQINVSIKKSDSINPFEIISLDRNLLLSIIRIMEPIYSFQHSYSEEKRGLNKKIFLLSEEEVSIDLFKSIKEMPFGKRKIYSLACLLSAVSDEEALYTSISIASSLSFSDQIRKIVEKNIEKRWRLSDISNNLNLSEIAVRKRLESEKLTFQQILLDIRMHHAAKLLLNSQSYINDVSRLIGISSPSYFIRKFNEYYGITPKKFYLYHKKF
T1 sequence (P09378 whole entry): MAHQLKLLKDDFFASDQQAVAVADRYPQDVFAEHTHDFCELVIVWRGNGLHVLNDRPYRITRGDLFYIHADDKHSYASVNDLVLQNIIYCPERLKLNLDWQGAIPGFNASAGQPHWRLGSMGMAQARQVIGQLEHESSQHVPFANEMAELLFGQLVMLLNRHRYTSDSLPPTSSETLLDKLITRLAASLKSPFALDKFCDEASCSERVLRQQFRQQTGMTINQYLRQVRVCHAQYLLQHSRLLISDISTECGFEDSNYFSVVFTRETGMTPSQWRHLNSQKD
Rns, sequence (P16114 whole entry): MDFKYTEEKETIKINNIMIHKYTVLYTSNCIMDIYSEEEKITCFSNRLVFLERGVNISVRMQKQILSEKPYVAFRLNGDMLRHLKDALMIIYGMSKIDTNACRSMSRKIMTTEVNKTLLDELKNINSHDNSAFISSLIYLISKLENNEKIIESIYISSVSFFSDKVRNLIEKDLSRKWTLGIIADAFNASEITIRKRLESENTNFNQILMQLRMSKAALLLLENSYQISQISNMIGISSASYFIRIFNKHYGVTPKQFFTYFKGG
T2 sequence (P0ACJ8 2-210): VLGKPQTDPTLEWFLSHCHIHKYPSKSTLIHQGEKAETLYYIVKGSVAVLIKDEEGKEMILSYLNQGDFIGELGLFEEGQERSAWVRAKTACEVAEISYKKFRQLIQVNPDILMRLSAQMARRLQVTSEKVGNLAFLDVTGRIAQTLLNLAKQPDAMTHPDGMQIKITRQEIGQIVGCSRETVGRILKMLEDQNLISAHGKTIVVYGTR

Regarding `CCCCN1C=C(c2ccc3ccccc3n2)C(C[N+](=O)[O-])c2ccccc21` (centres unmarked) [Compound 1, 1-butyl-4-(nitromethyl)-3-quinolin-2-yl-4H-quinoline], on GB1^b-RhaR, the IC50 (usually the concentration needed to halve the response being measured) is approximately 140 µM, the “concentration for 50% inhibition of GB1^b-RhaR relative to RhaS-GB1^201b” value is “two-fold higher” and the “inhibition of GB1^b-RhaR binding to DNA” value is “fully inhibit”. For the same molecule, the “CRP DNA binding retained” value on CRP is recorded as “approximately 94%”. For the same molecule, on Rns, the % Inhibition (as a rule, the share of the control response that was lost under treatment) at 82.5 μM Rns is 90%. Further, the “% Inhibition at 82.5 μM VirF” value at VirF [1] stood at 100%. Also, the IC50 on VirF [2] (IC50, virB-lacZ reporter fusion expression, E. coli strain with plasmid-expressed VirF) was approximately 8 µM. In addition, the “inhibition of in vivo activation by VirF” value against VirF [2] (compared with full-length RhaS) is recorded as “similar, if not greater, extent than full-length RhaS”.
